Test results taken from the PolyMetriX glass transition set.

SMILES	glass transition temperature
*/C(C)=C(/*)SCCCCCC (repeat unit)	110.00 °C
*=Nc1cccc(/N=C(/C=C/C(=*)c2ccccc2)c2ccccc2)c1 (repeat unit)	178.00 °C
*C#CC#Cc1cc(C(C)(C)C)cc2c3cc(C(C)(C)C)cc(*)c3n(CCCCCCCCCCCCCCCC)c12 (repeat unit)	67.00 °C
*CC(*)(F)C(=O)OCC (repeat unit)	94.00 °C
*CC(*)(F)C(=O)OCC(Cl)(Cl)Cl (repeat unit)	127.00 °C
*CC(*)(F)C(=O)OCC(F)(F)C(F)(F)C(F)(F)F (repeat unit)	75.00 °C
*CC(*)(F)C(=O)OCC(F)(F)F (repeat unit)	124.00 °C
*CC(*)(F)C(=O)OCCC (repeat unit)	62.00 °C
*CC(*)(F)C(=O)OCCC(F)(F)C(F)(F)C(F)(F)C(F)(F)C(F)(F)C(F)(F)C(F)(F)C(F)(F)F (repeat unit)	87.50 °C
*CC(*)(F)C(=O)OCCC(F)(F)C(F)(F)C(F)(F)C(F)(F)C(F)(F)C(F)(F)F (repeat unit)	53.00 °C
*CC(*)(F)C(C)=O (repeat unit)	142.00 °C
*CC(*)C(=O)NC (repeat unit)	171.00 °C
*CC(*)C(=O)NC(C)(C)CC(C)=O (repeat unit)	72.50 °C
*CC(*)C(=O)NCP(=O)(O)O (repeat unit)	26.00 °C
*CC(*)C(=O)Nc1ccc(C(=O)/C=C/c2cccc(Br)c2)cc1 (repeat unit)	55.00 °C
*CC(*)C(=O)Nc1ccc(Cl)cc1 (repeat unit)	76.00 °C
*CC(*)C(=O)Nc1cccc(Cl)c1 (repeat unit)	70.00 °C
*CC(*)C(=O)OC(F)(C(F)(F)F)C(F)(F)F (repeat unit)	10.00 °C
*CC(*)C(=O)OC(F)(F)C(F)(F)C(F)(F)C(F)(F)C(F)(F)C(F)(F)C(F)(F)C(F)(F)F (repeat unit)	9.00 °C
*CC(*)C(=O)OC([2H])([2H])[2H] (repeat unit)	35.00 °C
*CC(*)C(=O)OC1CC2CCC1(C)C2(C)C (repeat unit)	100.00 °C

SMILES	glass transition temperature
*CC(*)C(=O)OCC(C)(C)C (repeat unit)	22.00 °C
*CC(*)C(=O)OCC(COC(=O)c1ccccc1)(COC(=O)c1ccccc1)COC(=O)c1ccccc1 (repeat unit)	48.00 °C
*CC(*)C(=O)OCC(F)(F)C(F)(F)C(F)(F)C(F)(F)C(F)(F)C(F)(F)C(F)(F)F (repeat unit)	-17.00 °C
*CC(*)C(=O)OCC(F)(F)C(F)(F)F (repeat unit)	-26.00 °C
*CC(*)C(=O)OCC(F)(F)C(F)(F)OC(F)(F)C(F)(F)C(F)(F)F (repeat unit)	-68.00 °C
*CC(*)C(=O)OCCCCCC(=O)Oc1ccc(-c2ccc(C#N)cc2)cc1 (repeat unit)	38.00 °C
*CC(*)C(=O)OCCCCCCCCCCOc1cnc(-c2ccc(OC(=O)C3COC(C)(C)O3)cc2)nc1 (repeat unit)	29.00 °C
*CC(*)C(=O)OCCCCCCCCCOC(=O)c1ccc(OC(=O)c2ccc(C#N)cc2)cc1 (repeat unit)	15.00 °C
*CC(*)C(=O)OCCCCCCCCOC(=O)c1ccc(OC(=O)c2ccc(C#N)cc2)cc1 (repeat unit)	15.00 °C
*CC(*)C(=O)OCCCCCCCCn1c2ccccc2c2ccccc21 (repeat unit)	12.00 °C
*CC(*)C(=O)OCCCCCCOc1ccc(-c2ccc(C#N)cc2)cc1 (repeat unit)	45.00 °C
*CC(*)C(=O)OCCCCCCOc1ccc(C(=O)Oc2ccc(OC)cc2)cc1 (repeat unit)	29.50 °C
*CC(*)C(=O)OCCCCCCn1c2ccccc2c2ccccc21 (repeat unit)	48.00 °C
*CC(*)C(=O)OCCCCOc1ccc(-c2ccc(C#N)cc2)cc1 (repeat unit)	30.00 °C
*CC(*)C(=O)OCCCOC (repeat unit)	-66.50 °C
*CC(*)C(=O)OCCCOc1ccc(C(=O)OCCCC(F)(F)C(F)(F)C(F)(F)C(F)(F)C(F)(F)C(F)(F)F)cc1 (repeat unit)	17.00 °C
*CC(*)C(=O)OCCCSCC (repeat unit)	-76.00 °C
*CC(*)C(=O)OCCN(CC)c1ccc(/N=N/c2ccc([N+](=O)[O-])cc2)cc1 (repeat unit)	102.00 °C
*CC(*)C(=O)OCCN(CC)c1ccc(/N=N/c2ccc([N+](=O)[O-])cc2Cl)cc1 (repeat unit)	87.00 °C
*CC(*)C(=O)OCCOC(F)(F)C(F)F (repeat unit)	-22.00 °C
*CC(*)C(=O)OCCOCC(F)(F)F (repeat unit)	-38.00 °C

SMILES	glass transition temperature
*CC(*)C(=O)OCCOc1ccc(C(=O)Oc2ccc(OC)cc2)cc1 (repeat unit)	70.00 °C
*CC(*)C(=O)OCCSCC#N (repeat unit)	-24.00 °C
*CC(*)C(=O)OCCSCCC#N (repeat unit)	-50.00 °C
*CC(*)C(=O)OCCSCCCC#N (repeat unit)	-58.00 °C
*CC(*)C(=O)OCc1ccccc1 (repeat unit)	9.2 °C
*CC(*)C(=O)Oc1ccc(-c2ccccc2)cc1 (repeat unit)	110.00 °C
*CC(*)C(=O)Oc1ccc(/N=N/c2ccc(OC)cc2)cc1 (repeat unit)	140.00 °C
*CC(*)C(=O)Oc1ccc(C#N)cc1 (repeat unit)	92.00 °C
*CC(*)C(=O)Oc1ccc(C(=O)Oc2ccc(OC(=O)c3ccc(OCCCC)cc3)cc2)cc1 (repeat unit)	47.00 °C
*CC(*)C(=O)Oc1ccc(C(=O)Oc2ccc(OC(=O)c3ccc(OCCCCC)cc3)cc2)cc1 (repeat unit)	48.00 °C
*CC(*)C(=O)Oc1ccc(C(=O)c2ccc(Cl)cc2)cc1 (repeat unit)	78.00 °C
*CC(*)C(=O)Oc1ccc(C(C)(C)C)cc1 (repeat unit)	71.00 °C
*CC(*)C(=O)Oc1ccc(OC)cc1 (repeat unit)	50.50 °C
*CC(*)C(=O)Oc1cccc(C(=O)OCC)c1 (repeat unit)	24.00 °C
*CC(*)C(=O)Oc1cccc(C)c1 (repeat unit)	24.50 °C
*CC(*)C(=O)Oc1cccc2ccccc12 (repeat unit)	85.00 °C
*O[Si](C)(C)C#C[Si](C)(C)C#C[Si](C)(C)C#C[Si](C)(C)C#C[Si](*)(C)C (repeat unit)	-23.00 °C
*Oc1ccc(Oc2ccc(/C(=N/c3ccc(Oc4ccc(/N=C(\c5ccccc5)c5ccc(*)cc5)cc4)cc3)c3ccccc3)cc2)cc1 (repeat unit)	162.00 °C
*c1ccc(C#Cc2cc(OCCCCCCCC)c(C#Cc3ccc(-c4nnc(*)o4)cc3)cc2OCCCCCCCC)cc1 (repeat unit)	130.00 °C
